From patent US20080076721A1, “Use of branched chain fatty acid amino acid salts and compositions thereof” (priority 2006, published 2008)
Entries after “also recorded” stand apart in the source; their conditions may differ.

Assay: L-arginine phytanate method of use: 4-week oral post-workout supplementation in an experienced weight trained person (body weight, bench press)
Format: in vivo, human
Source text: In this example a experienced weight trained person orally consumes 3 grams of L-arginine phytanate post workout for 4 weeks as a beverage, consumes no supplements for 4 weeks, then orally consumes phytanic acid in the same manner post workout for 4 weeks. The L-arginine phytanate is incorporated into free powder mixture of flavoring agents and palatinose, which is then combined with water. Once in the plasma L-arginine phytanate then exerts a synergistic lean tissue promoting effect due to the anabolic actions of phytanic acid and L-arginine. Phytanic acid activates PPAR alpha, beta/delta, gamma, and increases nitric oxide synthase thus increasing nitric oxide production. This wide range of PPAR receptor activation and nitric oxide release combined with a high protein diet and anaerobic training program, enhances muscle building and fat loss. The L-arginine synergistically promotes protein synthesis and nitric oxide release. These physiological functions lead to increases in lean body mass, strength, endurance, recovery and loss of body fat. The test subject reported a weight gain of 5 lbs., a 25-pound increase in 1 repetition maximum (RM) bench press, and 6-repetition increase in initial 70 percent maximum bench press at the end of the L-arginine phytanate 4-week period as compared to baseline values. These increases contribute to the regulation of athletic function and thus lead to enhanced physical performance. […] During the final phase of the experiment, the test subject reported no increases in body weight, 1 repetition maximum bench press, or 70 percent maximum bench press.

[1] = experienced weight trained person, 3 grams orally post workout for 4 weeks, end of 4-week period compared to baseline
[2] = same subject, final phase after 4-week washout, orally in the same manner post workout for 4 weeks, result in words

Structure (SMILES)	weight gain (experienced weight trained person, 3 grams orally post workout for 4 weeks as a beverage, end of 4-week period compared to baseline) [lbs.]	increase in 1 repetition maximum (RM) bench press [1] [pound]	increase in initial 70 percent maximum bench press [1] [repetition]	1 repetition maximum bench press change [2]	70 percent maximum bench press change [2]	body weight change [2]
CC(C)CCCC(C)CCCC(C)CCCC(C)CC(=O)O.N=C(N)NCCC[C@H](N)C(=O)O [L-arginine phytanate, 3,7,11,15-tetramethylhexadecanoic L-arginine salt]	5	25	6			
CC(C)CCCC(C)CCCC(C)CCCC(C)CC(=O)O (stereo not drawn) [phytanic acid, 3,7,11,15-tetramethylhexadecanoic acid]				no increases	no increases	no increases; also recorded: decrease in body weight
